These results are taken from PMC8833744, “Strategic Decoy Peptides Interfere with MSI1/AGO2 Interaction to Elicit Tumor Suppression Effects” (Cancers, 2022).

In one data set the target is T1, endogenous AGO2 (Homo sapiens, UniProt Q9UKV8).
T1 construct: endogenous in cells
In words: Confocal immunofluorescence of 5′FAM-tagged peptides: cell entry and co-localization with AGO2. Format: cell-based. To be noted: 10 µM 5′FAM-tagged peptide. An excerpt: (§1) Other general procedures not detailed above including plasmid constructions, transfection, co-immunoprecipitation, RNA extraction, quantitative real-time PCR (qRT-PCR), gene expression analysis, Western blotting, immunofluorescence (IF) staining, and immunohistochemistry staining (IHC) were described previously.

Data set [1] concerns the target T2, MSI1/AGO2 interaction (M-NGluc / A-CGluc) (Homo sapiens, UniProt Q9UKV8).
T2 construct: expressed in transfected cells; pcDNA 3.1 and pCMV backbones
The experiment in a line: Split Gaussia luciferase reconstitution assay of MSI1/AGO2 interaction. Format: cell-based. As to conditions: IVIS; for reconstituted luciferase luminescence versus non-treated or CP-treated cells: tat-conjugated peptides, cisplatin-induced stress (30 µM). From the text:
We applied a gaussia luciferase (Gluc) system to detect protein–protein interaction between MSI1 and AOG2. We split gaussia luciferase into two fragments: the 106 a.a. N-terminus (NGluc) and the 79 a.a. C-terminus (CGluc). After polymerase chain reaction (PCR) amplification, the NGluc and CGluc were subjected to construct fusion protein with MSI1 and AGO2, respectively, in the pcDNA 3.1 and pCMV backbone. Each fusion protein contains a flexible linker (GGGGS) 2 between the protein and polypeptides of split luciferase. We stably transfected both fusion protein expression plasmids in DBTRG-05MG GBM cell line and generated a stable cell line with Hygromycin B (Sigma Aldrich Co., St. Louis, MI, USA) and G418 sulfate (Merck Co., […], Germany). We established a normalizing standard by transducing multiple reporter genes into the generated stable cell line for stably expressing green fluorescent protein (GFP), firefly luciferase (FLuc), and herpes simplex virus type I thymidine kinase (HSV1-tk) using lentivirus as previously described. For in vitro MSI1/AGO2 interaction study in cells, cell lysates were prepared with mild reporter lysis buffer (Promega Co., Madison, WI, USA) with a frozen–thaw cycle. The supernatant was then collected after centrifugation and dispensed in a 96-well black flat bottom plate. Coelenterazine (Nanolight Technologies, Ltd., Pinetop, AZ, USA), the substrate of GLuc, was firstly dissolved in methanol and diluted in reporter assay buffer (15 mM potassium phosphate, 25 mM glycylglycine, 15 mM MgSO4, 4 mM EDTA). D-luciferin sodium salt (Promega Co., Madison, WI, USA) was dissolved in sterilized water and diluted in reporter assay buffer supplemented with 2mM ATP. The bioluminescent signals were acquired by Wallac 1420 Victor2 Microplate Reader (Perkin Elmer, Waltham, MA, USA) equipped with auto-dispenser to avoid rapid decay of Gluc.

The target in data set [2] is T3, His-tagged recombinant AGO2 (Homo sapiens, UniProt Q9UKV8). The experiment in a line: Surface plasmon resonance (Biacore T200) binding of peptides to AGO2. As to conditions: for kon: read-out: ka (association rate constant); for koff: read-out: kd (dissociation rate constant). As for the experimental part:
Surface Plasmon Resonance (SPR) was utilized using Biacore T200 (GE Healthcare) to study binding affinities between decoy peptides Pep#11 and Pep#26 peptides with recombinant His-tagged AGO2 protein. The recombinant His-AGO2 and MSI1 peptides were diluted in HBS-P buffer (10 mM HEPES, 150 mM NaCl and 0.005% T20, pH 7.4). To evaluate the binding affinity, recombinant His-AGO2 was immobilized on a CM5 sensor chip (GE Healthcare, BR100012) via amine coupling (~7000 RU) for 3600 s at a rate of 5 µL/mins, and flow rate for binding analysis was run at 30 µL/mins. After injection of each peptide, the surface was regenerated with an injection of 10 mM NaOH. All sensorgrams were double referenced by subtracting the surface effect from the control flow […] and the buffer effect form the blank buffer. The kinetic values ka, kd, and KD were obtained using Biacore T200 Evaluation Software (GE healthcare) assuming the Langmuir 1:1 binding model.

The next data set addresses T4, MSI1/AGO2 interaction (Homo sapiens, UniProt Q9UKV8).
T4 construct: endogenous in cells
The experiment in a line: Co-immunoprecipitation competition of MSI1/AGO2 complex in cells. Format: cell-based. To be noted: cells treated with 10 µM peptide, hypoxic condition.
Excerpt: as §1

The subject of data set [3] is CCND1, CDK4, HELLS, NF2, TP53, p21 mRNA. The experiment in a line: qRT-PCR of downstream mRNA targets of the MSI1-AGO2 complex under hypoxia. The class given is cell-based, human. To be noted: peptide transfection in DBTRG-05MG cells, hypoxia versus normoxia. As for the experimental part:
In vitro binding assay was carried out with N-terminal biotinylated synthetic peptides (Table S3) based on our peptide array screening. The synthesized peptides (Thermo Fisher Scientific Inc., Waltham, MA, USA) were dissolved in 10% DMSO by 1 mg/mL and subjected to incubation with an equal amount of AGO2 recombinant protein (2 μg each) in T20 blocking solution (Thermo Fisher Scientific Inc., Waltham, MA, USA). After 16 h incubation, the peptides were pulled down with immobilized streptavidin (Pierce 21115, Thermo Fisher Scientific Inc., Waltham, MA, USA). The precipitated peptide/protein complex was subjected to immunoblotting with 6×His primary antibody (GeneTex Inc., Hsinchu, Taiwan) hybridization and detection. Peptide transfection was carried out with Proteojuice (Millipore 71281, Merck Co., Darmstadt, Germany) following the manufacturer’s instruction. For the in vivo compatible cell-penetrating peptide (CPP)-modified peptides, we tested two different CPPs at the C-terminal ends, including TAT (48–60) from HIV [55, 56, 57].
as §1
(Real-time PCR tracks product formation cycle by cycle.)

Data set [4] deals with T3, His-tagged recombinant AGO2. In words: PepSpot peptide tiling array incubated with His-tagged AGO2. The class given is binding. As to conditions: 15-mer peptides on nitrocellulose, 2 μg His-AGO2 overnight, HRP anti-6×His. As to the method: To rapidly screen the putative binding hotspots along the C-terminus of MSI1, we mimicked the epitope screening method by dotting the synthetic short peptides on nitrocellulose membrane and incubated with purified AGO2 protein [49]. The C-terminus of MSI1 (200–362) was divided into 27 individual synthetic peptides with N-terminal amine attached on the nitrocellulose. Each peptide is 15 amino acids in length and has eight amino acids overlapping with the previous neighboring peptide (Table S1). The purchased PepSpot membrane (JPT peptide technologies, Berlin, Germany) was firstly rinsed in methanol for 5 min, followed by Tris buffer saline supplemented with 0.1% Tween-20 (TBS-T) washing thrice. The membrane was then blocked by Superblock T20 blocking buffer (Thermo Fisher Scientific Inc., Waltham, MA, USA) for 2 h and 2 μg His-tagged AGO2 recombinant protein was added for an overnight incubation. The membrane was washed thrice with TBS-T and incubated with horseradish peroxidase (HRP)-conjugated 6×His tag primary antibody (Genetex Inc., Hsinchu, Taiwan) for 4 h under 4 °C. Enhanced chemiluminescent reagent was used for further blotting.

In the next data set the test system is DBTRG-05MG cell line. In words: Concentration-dependent cellular uptake (half-uptake concentration EC50). Format: in vitro ADME, human. To be noted: Figure 6A,B legend, fluorescein labeled peptides, ELISA reader.
The test system of data set [5] is DBTRG-05MG cells. The experiment in a line: Degradation of 5′FAM-labeled peptides in cells. As to conditions: 5′FAM-labeled peptide, cells followed up to 6 h, fluorescence by ELISA reader, three independent experiments. The class given is in vitro ADME, human.
In data set [6] the test system is DBTRG-05MG cells. The experiment in a line: Time-lapse cellular uptake of 5′FAM-labeled peptides. Format: in vitro ADME, human. To be noted: 5′FAM-labeled peptide, time-lapse confocal and fluorescence by ELISA reader, n = 3 per time point.

For orientation: pEC50 means the EC50 on a negative log10 scale, so that one unit is a factor of ten. High values mean a small EC50, low ones a large EC50.

pEC50: −log10 of the molar value. Residues, ends and D or L forms follow the SMILES beside them. No end group written: not given here. *: point of attachment. 5FAM = O=C1OC2(c3ccc(O)cc3Oc3cc(O)ccc32)c2ccc(C(=O)*)cc21

T3 sequence (Q9UKV8 whole entry): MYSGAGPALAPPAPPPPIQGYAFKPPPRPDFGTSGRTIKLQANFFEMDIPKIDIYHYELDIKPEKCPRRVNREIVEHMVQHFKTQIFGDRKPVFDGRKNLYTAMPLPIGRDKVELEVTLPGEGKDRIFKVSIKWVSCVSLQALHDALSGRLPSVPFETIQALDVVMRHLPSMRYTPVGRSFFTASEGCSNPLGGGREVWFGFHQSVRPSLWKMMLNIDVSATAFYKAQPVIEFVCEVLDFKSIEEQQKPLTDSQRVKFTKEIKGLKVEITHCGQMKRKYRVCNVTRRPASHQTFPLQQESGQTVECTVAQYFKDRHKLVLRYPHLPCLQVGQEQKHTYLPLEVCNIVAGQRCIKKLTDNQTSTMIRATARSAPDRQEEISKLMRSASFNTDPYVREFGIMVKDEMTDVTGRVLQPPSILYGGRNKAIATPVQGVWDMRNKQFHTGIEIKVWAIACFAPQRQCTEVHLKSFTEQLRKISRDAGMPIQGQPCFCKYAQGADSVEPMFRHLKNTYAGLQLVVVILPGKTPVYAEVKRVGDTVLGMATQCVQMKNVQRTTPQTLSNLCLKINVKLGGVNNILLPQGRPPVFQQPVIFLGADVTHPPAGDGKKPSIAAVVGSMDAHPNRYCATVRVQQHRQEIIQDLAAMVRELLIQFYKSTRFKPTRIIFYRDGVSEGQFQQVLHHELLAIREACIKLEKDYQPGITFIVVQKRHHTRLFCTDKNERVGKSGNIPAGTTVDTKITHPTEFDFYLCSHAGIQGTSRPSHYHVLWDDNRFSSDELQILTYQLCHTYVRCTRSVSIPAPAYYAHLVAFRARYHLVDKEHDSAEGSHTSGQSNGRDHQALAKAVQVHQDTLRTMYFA
T2 sequence (Q9UKV8 whole entry): as above
T1 sequence (Q9UKV8 whole entry): as above
T4 sequence (Q9UKV8 whole entry): as above

Take `CC(C)C[C@H](NC(=O)[C@@H]1CCCN1C(=O)[C@@H](NC(=O)[C@H](CCCNC(=N)N)NC(=O)[C@H](CCC(=O)O)NC(=O)[C@@H](NC(=O)[C@H](CCCNC(=N)N)NC(=O)[C@H](Cc1ccccc1)NC(=O)[C@H](CCC(=O)O)NC(=O)[C@@H]1CCCN1C(=O)[C@H](Cc1ccccc1)NC(=O)[C@H](CCC(N)=O)NC(=O)[C@H](Cc1ccc(O)cc1)NC(=O)c1ccc2c(c1)C(=O)OC21c2ccc(O)cc2Oc2cc(O)ccc21)C(C)C)[C@@H](C)O)C(=O)N1CCC[C@H]1C(=O)N[C@@H](CO)C(=O)NCC(=O)N[C@@H](CCCNC(=N)N)C(=O)N[C@@H](CCCCN)C(=O)N[C@@H](CCCCN)C(=O)N[C@@H](CCCNC(=N)N)C(=O)N[C@@H](CCCNC(=N)N)C(=O)N[C@@H](CCC(N)=O)C(=O)N[C@@H](CCCNC(=N)N)C(=O)N[C@@H](CCCNC(=N)N)C(=O)N[C@@H](CCCNC(=N)N)C(=O)N1CCC[C@H]1C(=O)N1CCC[C@H]1C(=O)N[C@@H](CCC(N)=O)C(=O)O` [5′FAM-Pep#11] (5FAM-YQFPEFRVERTPLPSGRKKRRQRRRPPQ-OH): the “entry into cells (confocal microscopy)” value on endogenous AGO2 is given as “capable of entering the cells”. Moreover, the “subcellular co-localization with AGO2” value on endogenous AGO2 (confocal microscopy) is on record as “co-localized with endogenous AGO2 in the cytosol”.

On to `CC[C@H](C)[C@H](NC(=O)[C@H](CC(C)C)NC(=O)[C@@H]1CCCN1C(=O)CNC(=O)CNC(=O)[C@H](CC(C)C)NC(=O)[C@H](CO)NC(=O)[C@H](Cc1c[nH]cn1)NC(=O)c1ccc2c(c1)C(=O)OC21c2ccc(O)cc2Oc2cc(O)ccc21)C(=O)N[C@@H](C)C(=O)N[C@H](C(=O)N[C@@H](C)C(=O)N[C@@H](Cc1ccccc1)C(=O)N[C@H](C(=O)N[C@@H](CC(N)=O)C(=O)NCC(=O)NCC(=O)N[C@@H](CCCNC(=N)N)C(=O)N[C@@H](CCCCN)C(=O)N[C@@H](CCCCN)C(=O)N[C@@H](CCCNC(=N)N)C(=O)N[C@@H](CCCNC(=N)N)C(=O)N[C@@H](CCC(N)=O)C(=O)N[C@@H](CCCNC(=N)N)C(=O)N[C@@H](CCCNC(=N)N)C(=O)N[C@@H](CCCNC(=N)N)C(=O)N1CCC[C@H]1C(=O)N1CCC[C@H]1C(=O)N[C@@H](CCC(N)=O)C(=O)O)[C@@H](C)O)[C@@H](C)O` [5′FAM-Pep#26] (5FAM-HSLGGPLIATAFTNGGRKKRRQRRRPPQ-OH), for which the “entry into cells (confocal microscopy)” value on endogenous AGO2 is reported as “capable of entering the cells”.

On to `N.N.[Cl][Pt][Cl]` [cisplatin, reference compound], for which, in data set [1] (cells overexpressing M-NGluc and A-CGluc, 30 µM cisplatin), the “luciferase luminescence versus PBS-treated group” value is “significantly greater luminescence”.

Take “GSHPWTMAPPPGSTPGRKKRRQRRRPPQ [CP, reference compound]”: in data set [2], the kon was found to be 42500 M⁻¹ s⁻¹ and the koff worked out at 4.53 s⁻¹.

For HSLGGPLIATAFTNGGRKKRRQRRRPPQ [Pep#26], in data set [2], the kon is 3160 M⁻¹ s⁻¹ and the koff came to 0.00213 s⁻¹. Moreover, the “interference with MSI1/AGO2 binding complex formation (Co-IP immunoblot)” value at MSI1/AGO2 interaction is given as “completely abolished”. Further, the “effect of hypoxia-induced MSI1/AGO2 complex on downstream mRNAs (CCND1, CDK4, HELLS, NF2, TP53, p21)” value in data set [3] is given as “reversed”. For the same molecule, the “reconstituted luciferase luminescence versus non-treated or CP-treated cells” value in data set [1] was “significantly lower”. Besides, in [4], the “binding to AGO2 on the peptide array (immunoblot)” value is “strongest binding peptides”. In the data set on DBTRG-05MG cell line, the pEC50 is 5.05. Further, the “time of significant degradation in the cells (change in 5′FAM fluorescence)” value in the data set on DBTRG-05MG cells [5] was “within the first half an hour”.

Turning to YQFPEFRVERTPLPSGRKKRRQRRRPPQ [Pep#11], in data set [2], the kon came to 32600 M⁻¹ s⁻¹ and the koff is 0.0168 s⁻¹. The “interference with MSI1/AGO2 binding complex formation (Co-IP immunoblot)” value on MSI1/AGO2 interaction is recorded as “completely abolished”. Besides, the “effect of hypoxia-induced MSI1/AGO2 complex on downstream mRNAs (CCND1, CDK4, HELLS, NF2, TP53, p21)” value in data set [3] was “reversed”. For the same molecule, in data set [1], the “reconstituted luciferase luminescence versus non-treated or CP-treated cells” value is listed as “significantly lower”. For the same molecule, the “binding to AGO2 on the peptide array (immunoblot)” value in data set [4] is recorded as “strongest binding peptides”. The pEC50 in the data set on DBTRG-05MG cell line was 5.04. The “time of significant increases in cellular uptake” value in the data set on DBTRG-05MG cells [6] was “within the first hour”. Moreover, in the data set on DBTRG-05MG cells [5], the “time of significant degradation in the cells (change in 5′FAM fluorescence)” value was “within the first half an hour”.
